Measurements from article PMC9732821, “Neurotrophic Activity and Its Modulation by Zinc Ion of a Dimeric Peptide Mimicking the Brain-Derived Neurotrophic Factor N-Terminal Region” (ACS Chemical Neuroscience, 2022).

Assays:
SH-SY5Y cells [1] = experiment: RT-PCR gene expression analysis of differentiated SH-SY5Y cells; type: cell-based, human; settings: RT-PCR mRNA, four replicas, two independent experiments
Text: Figure 4 Neuronal differentiation and polarization genes stimulated by BDNF and d-bdnf mimetic peptide. (A) Schematic timeline of the experiment. As non-differentiated control, we used untreated cells seeded at the same density (non-diff ctrl, white bars). As a control for the expression of neuronal polarization genes, we used cells stopped at d5 (non-pol ctrl). (B) RT-PCR analysis of the mRNA expression levels of neuronal differentiation markers (NTRK2, LAMC1, and NEFM) and polarization markers (GAP43, MAP2, and MAPT) induced by BDNF and d-bdnf with respect to non-diff and non-pol ctrl samples, respectively. Data are expressed as fold changes with respect to the average ctrl value set to 1, and the mean ± SEM of four replicas from two independent experiments are reported (****p < 0.0001, ***p < 0.001, **p < 0.01, and *p < 0.05 according to the one-way ANOVA with Bonferroni’s multiple comparison test).
Figure 6 Modulation of d-bdnf neurotrophic activity by Zn^2+ ion. (A) Neurite outgrowth assay for d-bdnf-Zn^2+ conjugate. The ctrl and d-bdnf samples are the same as in Figure 2C, here reported as a reference. Data represent the mean ± SD of fields pooled from two independent replicas. (****p < 0.0001, according to the one-way ANOVA with Dunnett’s multiple comparison test). (B) RT-PCR analysis of the mRNA expression levels of the marker genes (as described in Figure 3B). Data are expressed as fold changes with respect to the average ctrl value set to 1, and the mean ± SEM of four replicas from two independent experiments are reported (**p < 0.01, *p < 0.05, vs ctrl; #p < 0.05 vs d-bdnf, according to one-way ANOVA with Bonferroni’s multiple comparison test). […]
RT-PCR analysis of SH-SY5Y differentiation
At the end of each differentiation treatment and relative controls, cells were col lected, and total RNA was extracted using the Rneasy Mini Kit (Qiagen). The RNA concentration and purity were checked at the Nanodrop instrument (Thermofisher). cDNA synthesis was performed with 1 µg of RNA using i-Script cDNA synthesis kit (BioRad). Real-time PCR reactions consisted of 10 µL of SsoAdvanced™ Universal SYBR® Green Supermix - Bio-Rad, 0.5 µL of both 10 µM forward and reverse primers, 5 µL of cDNA (50 ng), and 4 µL of H2O. The primer sequences and the product size […]
HPRT1 and NEFM primers were purchased by Biorad (qHsaCID0016375 and qHsaCED0043021, Bio-Rad). The mRNA levels for each sample were normalized against GAPDH and HPRT1 mRNA levels, and the relative expression was calculated by using the methods of the […]

SH-SY5Y cells [2] = experiment: neurite outgrowth of differentiated SH-SY5Y cells; type: cell-based, human; settings: 3 days after 5 days retinoic acid
Experimental: Figure 3 Neurite outgrowth stimulated by BDNF and its mimetic peptide ligands. (A) Top, left: schematic timeline of the experiment. SH-SY5Y cells were differentiated for 5 days (d1–5) by addition of retinoic acid (RA, gray bar) in the cell medium. Then, cells were stimulated for 3 days (d6–8) with 150 ng/mL BDNF or different concentrations of its peptide-mimetics (black bar) or left untreated (white bar). On the right and bottom, representative images of the differentiated cells at the end of each treatment. Scale bar 50 μm. (B) Scatter dot plot of the total neurite length, normalized to the number of cell bodies present in each analyzed field. […] For each field, an average of 50–200 cells were counted. […] (C) Representative fluorescence images of DIV3 Ren cells stained with DAPI (blue) and β3-tubulin (green) after differentiation with the standard medium (CTRL), or with the standard medium supplemented with 50 ng/mL BDNF or with 1 μM d-bdnf. […] (D) Column plot of the mean ± SD fraction of β3-tubulin (green) positive on the total cells, counted in the DAPI channel of the analyzed fields (nfields) (CTRL: nfields = 10 and total ncells = 4756; BDNF: nfields = 11 and total ncells = 4330; d-bdnf: nfields = 10 and total ncells = 5619 cells; ****p < 0.0001, *p < 0.05 according to the one-way ANOVA with Dunnett’s multiple comparison test). […]

How did the MAPT expression (SH-SY5Y cells [1]; axon marker, d-bdnf vs BDNF) turn out when “HSDPARRGELSVC-C-VSLEGRRAPDSH (disulfide) [d-bdnf]” was run?
The MAPT expression was “to a similar extent to BDNF”.

And the MAP2 expression (SH-SY5Y cells [1]; dendrite marker, d-bdnf vs BDNF)?
The MAP2 expression was “to a similar extent to BDNF”.

And the LAMC1 expression (SH-SY5Y cells [1]; d-bdnf vs BDNF)?
The LAMC1 expression was “to promote, to a similar extent of BDNF, the expression of NTRK2 and LAMC1 genes”.

What about the NTRK2 expression (SH-SY5Y cells [1]; d-bdnf vs BDNF) of the same substance?
Its NTRK2 expression is “to promote, to a similar extent of BDNF, the expression of NTRK2 and LAMC1 genes”.

What about the GAP43 gene expression (SH-SY5Y cells [1]) of the same substance?
Its GAP43 gene expression is “not significantly increased by either the d-bdnf doses tested”.

What about the NEFM gene expression (SH-SY5Y cells [1]) of the same substance?
The NEFM gene expression was “significantly increased only at the highest d-bdnf dose (10 μM)”.

What about the neurite network (SH-SY5Y cells [2]; 1 and 5 μM, compared with BDNF 150 ng/mL) of the same substance?
Its neurite network is “able to elicit a neurite network similar to that raised by nM concentrations of BDNF”.

What about the neurite network (SH-SY5Y cells [2]; higher doses (10 μM)) of the same substance?
Its neurite network is “not able to produce the same effect”.
